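96-well plates; 48 h exposure; 5 concentrations. Endpoints by linear interpolation between flanking doses. Not reached: highest tested concentration assigned. TGI denotes the concentration required for complete inhibition of growth.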
Assays:
Assay in all cases: DTP human tumour cell line panel, 48 h
[1] = system: SF-268 CNS
[2] = system: MDA-N
[3] = system: SNB-75 CNS
[4] = system: UACC-62 melanoma
[5] = system: M14 melanoma
[6] = system: DU-145 prostate
[7] = system: HT29 colon
[8] = system: SF-539 CNS
[9] = system: A549 NSCLC
[10] = system: ACHN renal
[11] = system: MCF7 breast
[12] = system: SK-OV-3 ovarian
[13] = system: 786-0 renal
[14] = system: MDA-MB-435
[15] = system: SR leukemia
[16] = system: RXF 393 renal
[17] = system: CCRF-CEM leukemia
[18] = system: BT-549 breast

Row | Compound | TGI [1] [µM] | TGI [2] [µM] | TGI [3] [µM] | TGI [4] [µM] | TGI [5] [µM] | TGI [6] [µM] | TGI [7] [µM] | TGI [8] [µM] | TGI [9] [µM] | TGI [10] [µM] | TGI [11] [µM] | TGI [12] [µM] | TGI [13] [µM] | TGI [14] [µM] | TGI [15] [µM] | TGI [16] [µM] | TGI [17] [µM] | TGI [18] [µM]
1 | Cc1c2c(n(CCN(C)C)c1C)NN=C(C#N)S2(=O)=O | > 100 | > 100 | > 100 | > 100 | > 100 | > 100 | > 100 | > 100 | > 100 | > 100 | > 100 | > 100 | > 100 | > 100 | – | – | – | –
2 | CN(CCCNC(=O)c1nn(-c2ccc(Cl)cc2Cl)c2c1ccc1ccccc12)CCCNC(=O)c1nn(-c2ccc(Cl)cc2Cl)c2c1ccc1ccccc12 | 3.22 | 3.18 | 3.18 | 3.03 | 3.04 | 3.18 | 3.04 | 3.47 | 3.11 | 3.02 | 2.9 | 3.49 | 2.95 | 3.23 | 1.58 | 3.12 | 5.7 | –
3 | COc1c(O)c2c(=O)cc(OC)c3c4c(OC)cc(=O)c5c(O)c(OC)c6c(c(c1C(C(C)=O)C6C(C)O)c23)c54 (centres undefined) | 3.92 | 2.34 | 1.42 | 1.01 | – | 1.74 | 0.267 | 1.87 | 3.06 | 1.09 | 1.54 | 2.49 | 3.81 | 3.1 | 1.93 | – | 1.16 | –
4 | N#CC(Cc1ccccc1Br)N(CCC1=CCCCC1)C(c1ccccc1)c1ccccc1 (centres undefined) | > 100 | > 100 | > 100 | > 100 | > 100 | > 100 | > 100 | – | > 100 | > 100 | > 100 | > 100 | > 100 | > 100 | – | > 100 | – | > 100
5 | COc1cc2c(cc1OC)C(N)CC2=O (centres undefined) | > 100 | – | > 100 | > 100 | > 100 | > 100 | > 100 | > 100 | > 100 | > 100 | > 100 | > 100 | > 100 | > 100 | > 100 | > 100 | > 100 | > 100
6 | COc1cc(O)c2c(=O)cc(C3(O)C=CC(=O)C=C3)oc2c1 | 1.72 | – | 3.06 | 0.786 | 2.37 | 3.18 | – | – | – | 0.22 | 0.58 | 13.8 | 0.876 | – | 0.126 | 17.7 | – | 1.49
7 | O=C(/C=C/c1ccc(O)c(O)c1O)OCCc1ccccc1 | > 100 | 34 | – | > 100 | 37.9 | > 100 | 53.4 | 70.7 | 52.8 | > 100 | 32.2 | > 100 | 35.5 | 36.2 | 40.6 | 98.2 | – | –
8 | CC1(C)CC(=O)c2c(nc(SSc3nc4c(c(-c5ccccc5)c3C#N)C(=O)CC(C)(C)C4)c(C#N)c2-c2ccccc2)C1 | > 10 | – | > 10 | – | > 10 | > 10 | > 10 | > 10 | > 10 | > 10 | > 10 | > 10 | > 10 | – | – | > 10 | > 10 | > 10
9 | COc1ccc(/C=C2\N=C(NN)N=C2Cl)cc1 | > 100 | > 100 | > 100 | – | > 100 | > 100 | > 100 | > 100 | > 100 | > 100 | > 100 | > 100 | > 100 | > 100 | > 100 | > 100 | > 100 | –
10 | CC#CCCN(CC#N)Cc1ccccc1 | > 100 | > 100 | > 100 | 32.9 | > 100 | > 100 | > 100 | – | > 100 | 48 | 44.7 | > 100 | > 100 | > 100 | > 100 | > 100 | > 100 | –
11 | COc1ccc([C@@]23OC[C@@H]4[C@@H](OC[C@@H]42)c2cc(OC)c(OC)cc23)cc1OC | – | – | > 100 | > 100 | > 100 | > 100 | – | > 100 | > 100 | > 100 | > 100 | > 100 | > 100 | > 100 | > 100 | > 100 | – | > 100
12 | O=c1[nH]n(Cc2ccccn2)c2ccc([N+](=O)[O-])cc12 | > 100 | > 100 | > 100 | > 100 | > 100 | > 100 | > 100 | > 100 | > 100 | > 100 | – | – | > 100 | – | > 100 | > 100 | > 100 | –
13 | COc1ccc(C2SC(C)C(=O)N2c2nc(-c3nc(-c4ccc(Cl)cc4)cs3)cs2)cc1 (centres undefined) | > 100 | > 100 | > 100 | > 100 | > 100 | – | > 100 | > 100 | > 100 | > 100 | > 100 | > 100 | > 100 | > 100 | > 100 | > 100 | > 100 | > 100
14 | C=CC[C@@H]1C(=O)[C@@]2(O[Si](C(C)C)(C(C)C)C(C)C)CC[C@@H]1C[C@H]2NC(=O)OCC(Cl)(Cl)Cl | > 100 | > 100 | > 100 | > 100 | > 100 | > 100 | > 100 | – | > 100 | > 100 | – | > 100 | > 100 | > 100 | > 100 | – | > 100 | –
15 | Cc1ccc(S(=O)(=O)N2CCCC2C(=O)O[C@H]2CC[C@H]3CC=C[C@H]32)cc1 (some centres undefined) | > 100 | > 100 | > 100 | > 100 | > 100 | – | > 100 | – | > 31.6 | > 31.6 | 78.8 | > 100 | > 31.6 | > 100 | > 69.6 | – | > 100 | > 100
16 | CC(=O)OC1CC[C@]2(C)C3CC[C@@]4(C)C(CCC4[C@H](C)CCCC(C)C)[C@@H]3CCC2(Br)C1 (some centres undefined) | 28.1 | > 50 | > 50 | > 50 | > 50 | > 50 | > 50 | 18.5 | > 50 | 20.2 | 23.3 | > 50 | 17.5 | 19.4 | 24.8 | 21.9 | 27.3 | –
17 | O=C(O)c1ccccc1/C=N/NC1=NCCCCN1 | > 100 | > 100 | > 100 | > 100 | > 100 | – | > 100 | > 100 | > 100 | > 100 | > 100 | > 100 | > 100 | > 100 | > 100 | > 100 | > 100 | > 100
18 | CCS(=O)(=O)CCn1cnc2c1c(=O)n(C)c(=O)n2C | > 100 | > 100 | > 100 | > 100 | > 100 | > 100 | > 100 | > 100 | > 100 | > 100 | > 100 | – | > 100 | > 100 | – | > 100 | > 100 | > 100
19 | NNc1[nH]c(=S)[nH]c1C(N)=O | > 100 | – | > 100 | > 100 | > 100 | > 100 | > 100 | > 100 | > 100 | – | > 100 | > 100 | > 100 | > 100 | – | > 100 | > 100 | > 100
20 | Cn1c2c(c3ccccc31)CC(=S)N1CCCC(CC2O)C1 (centres undefined) | > 100 | > 100 | > 100 | > 100 | – | > 100 | > 100 | > 100 | > 100 | > 100 | > 100 | > 100 | > 100 | > 100 | – | – | – | > 100
21 | Nc1nc(Cl)c2nnn(CC3CCC(CO)C3)c2n1 (centres undefined) | > 100 | > 100 | > 100 | > 100 | > 100 | > 100 | – | > 100 | > 100 | > 100 | > 100 | > 100 | > 100 | > 100 | – | > 100 | > 100 | –
22 | Cc1ccc(/C=C/C(=N/NC(=O)N/N=C(/C=C/c2ccc(C)cc2)C(C)(C)CN2CCCCC2)C(C)(C)CN2CCCCC2)cc1 | 4.64 | 2.88 | 3.08 | 4.02 | 1.8 | – | 2.16 | 3.24 | 3.02 | 4.23 | 2.83 | 3.32 | 2.68 | 2.76 | 0.359 | 2.68 | 3.08 | 4.21
23 | CCOC(=O)/C=C1\c2ccccc2C(=O)N1CC(=O)OCC | > 100 | > 100 | > 100 | > 100 | > 100 | > 100 | – | – | > 100 | > 100 | – | > 100 | > 100 | > 100 | – | > 100 | > 100 | > 100
24 | O=C(c1cccc(C(=O)c2ccc3c4c(cccc24)C(=O)N(c2ccccc2)C3=O)c1)c1ccc2c3c(cccc13)C(=O)N(c1ccccc1)C2=O | > 100 | > 100 | > 100 | > 100 | > 100 | > 100 | > 100 | > 100 | > 100 | > 100 | > 100 | > 100 | > 100 | > 100 | – | > 100 | – | > 100
25 | Clc1nc2n(c1/C=C/c1cccs1)CCS2 | > 100 | > 100 | > 100 | > 100 | > 100 | > 100 | 96.6 | – | > 100 | > 100 | > 100 | 95.8 | 95.5 | > 100 | – | > 100 | 46.6 | 90.4
26 | C/C=C/C(=O)N1C(=O)OC[C@@H]1c1ccccc1 | 44.1 | 43.8 | 27.1 | – | 36.6 | 37.4 | 33.7 | 38.5 | 36.3 | 33.5 | 31.5 | 33.3 | 35 | 70 | – | 37.2 | 44.8 | –
27 | CCOC(=O)c1cnc(-n2[nH]c3c(c2=O)CCCC3)[nH]c1=O | > 100 | > 100 | – | 95.4 | > 100 | > 100 | > 100 | > 100 | > 100 | > 100 | – | > 100 | > 100 | > 100 | > 100 | – | > 100 | > 100
28 | COc1ccc2c(c1)CCC1=CC3(CCC12C)SCCS3 (centres undefined) | > 10 | 6.36 | > 10 | > 10 | > 10 | > 10 | > 10 | – | > 10 | > 10 | > 10 | > 10 | > 10 | > 10 | > 10 | – | > 10 | > 10
29 | NCCN1CC2CCC(CC2)C1 | > 10 | – | > 10 | > 10 | > 10 | > 10 | > 10 | > 10 | > 10 | > 10 | > 10 | > 10 | > 10 | > 10 | > 10 | > 10 | > 10 | –
